# Earlier results, collected in patent publication US20260207579A1, “VITAMIN B SUPPLEMENTATION TO TREAT PITUITARY PARS INTERMEDIA DYSFUNCTION (PPID) IN EQUIDS” (MARS INCORPORATED, priority 2022, published 2026).
# Structures can show the parent of a compound that is named as a salt.
# Experiments:
# [1] = 3 g/day, mares, mean BW of ~500 kg
# [2] = test system: brain cells; conditions: species other than the horse
# [3] = test system: horses
# [4] = 5 g/day, horses
# [5] = test system: adult Thoroughbred horses; conditions: 3 g/day for 6 weeks, exercising adult Thoroughbred horses likely around 500 kg
# [6] = test system: dopamine production; conditions: over the long term, mice
# [7] = test system: PPID
# [8] = test system: dementia; conditions: humans with dementia and concurrent vitamin B12 deficiency
molecule,measurement,setting,value
"O=C(O)c1cccnc1 [NA, nicotinic acid]",bioavailability of NAD+ precursors in the follicular fluid,[1],increased
same,plasma concentrations of NAD+ precursors,[1],no apparent increase
same,intracellular NAD+ levels,[2],increase
"N[C@@H](Cc1c[nH]c2ccccc12)C(=O)O [Tryptophan, tryptophan]",behavioural effects,[3],both excitatory and sedative effects
same,toxicity,[3]; high doses,hemolytic anemia and symptoms of respiratory distress
O=C(O)c1cccnc1 [niacin],plasma and urine concentrations of NAD+ precursors,[4],increases
same,adverse effects,[5],no measured adverse effects
same,benefits as putative ergogenic aid,[5],no apparent benefits
NC(=O)c1ccc[n+]([C@@H]2O[C@H](CO)[C@@H](O)[C@H]2O)c1 [nicotinamide riboside],dopamine production,[6],may downregulate dopamine production
CCCN1C[C@H](CSC)C[C@@H]2c3cccc4[nH]cc(c34)C[C@H]21 [pergolide mesylate],clinical outcome in PPID,[7],clinical improvement
vitamin B12,effect of supplementation,[8],beneficial
